This experiment deals with human LDL (LDL lipid peroxidation). Description: Inhibition of LDL lipid peroxidation (cupric sulfate-induced, thiobarbituric acid assay). The format is biochemical. Particulars: 250 μg human LDL, compound preincubated 30 min at 42 °C, cupric sulfate 12.5 μM final, 37 °C, 2.5 hours, read-out: ID50 (concentration of test compound required to inhibit 50% of LDL lipid peroxidation). How it is done: The degree of inhibition of LDL lipid peroxidation was determined by the method of Yagi et al. [Vitamins 39, 105 (1968)].
A 0.5 mL solution containing 250 micrograms (μg) of human LDL was incubated with the test compound, in amounts varying from 0 to 30 μg, for 30 minutes at 42° C. To this mixture was added 1 mL of a cupric sulfate solution (final concentration 12.5 μM) and the mixture was incubated at 37° C. for 2.5 hours. The amount of peroxidation of LDL lipid was determined by the thiobarbituric acid assay. The concentration of test compound required to inhibit 50% of LDL lipid peroxidation (ID50) was determined.

Structures are written as SMILES. pIC50: −log10 of the molar value.

For one compound, IC50 results are on record in patent US5281738A, “bis[4-(2,6-di-alkyl)phenol]silane derivatives as antiatherosclerotic agents” (Merrell Dow Pharmaceuticals Inc., priority 1992, dated 1994).

`CC(C)(C)c1cc(SC[Si](C)(C)CSc2cc(C(C)(C)C)c(O)c(C(C)(C)C)c2)cc(C(C)(C)C)c1O` [Compound A, 4,4'-[(Dimethylsilylene)bis(methylenethio)]-bis[2,6-di-t-butyl]phenol]: the pIC50 was 5.02.
